The values that follow come from patent US12241083B2, “Macs-based purification of stem cell-derived retinal pigment epithelium” (FUJIFILM Cellular Dynamics, Inc., priority 2015, dated 2025).

“Also recorded” adds a separate entry of the source.

Holding throughout (type): cell-based, human
Assay [1] relates to iPSC-RPE cells. Nature of the assay: Immunostaining of the iPSC-RPE monolayer (beta catenin, pERM, ZO1, RPE65, p27). Particulars: for Production of mature RPE cells: conclusion from beta catenin and RPE65 staining; for p27 staining: treated cells vs untreated (untreated: weak p27 in nucleus), higher p27 suggests cell cycle exit; for Beta catenin staining: treated iPSC-RPE cells vs untreated (untreated: beta catenin in cytoplasm). The text has this: The mature RPE cells were further developed into functional RPE cell monolayers that function as an intact RPE tissue by continued culture in the RPE-MM with additional small molecules such as primary cilium inducers like PGE2 or aphidicolin. Without being bound by theory, these primary cilium inducers suppress the canonical WNT pathway, induce cell cycle exit in the cells, and induce apical-basal polarization in the RPE monolayer. RPE maturity can alternatively be induced by canonical WNT pathway inhibitors such as IWP2 and endo-IWR1 that also induce cell cycle exit in RPE cells to promote RPE maturation. The cells were cultured in this medium for another 2-3 weeks to obtain mature and functional RPE cell monolayers. Thus, the presently disclosed methods provide mature RPE cells from pluripotent cells that can be consistently reproduced at a large scale for clinical applications.
(§1) For analysis of the mature RPE cells produced from treatment with PGE2, immunostaining of the RPE monolayer was performed to confirm the hexagonal architecture (FIGS. 4A-4C) of tight junctions by ZO1 staining as well as transmission electron microscopy of the iPSC-RPE cells (FIG. 4D).

Assay [2] relates to iPSC-RPE cells. Nature of the assay: Transmission electron microscopy of iPSC-RPE cells. The following applies: PGE2-treated vs untreated iPSC-RPE cells. The procedure: as §1
The subject of assay [3] is iPSC-derived RPE cells. As to the kind of experiment: Barrier function: transepithelial electrical resistance (TER) and potential (TEP) of the RPE monolayer. The procedure: To measure the barrier function of the RPE cells generated by the present methods, transepithelial electrical potential (TEP) was measured the ion gradient across the monolayer generated by energy-driven ion pumps that regulate passage across the cells, and transepithelial electrical resistance (TER) measures resistance of substances through the paracellular space mainly through the fine structure of the tight junction structure (FIG. 7A).
Functionality of the mature RPE cells treated with IWP2 or endo-IWR1 was also characterized.
Next, it was tested whether an increase in the concentration of PGE2 from 50 μM to 100 μM in the RPE-MM+PGE2 medium would improve both purity of the RPE population (i.e., a decrease in contaminating cells) as well as maturity of the resulting RPE population. To determine the maturity and functionality of the 50 μM versus 100 μM PGE2 treated cultures, the barrier function in terms of transepithelial electrical resistance (TER) was measured (FIG. 7F) to compare the resistance of substances through the paracellular space as explained in Example 9. To determine the percentage of pure RPE cells obtained after treatment of the iPSC-derived RPE cultures with 50 μM or 100 μM in the RPE-MM+PGE2 medium, flow cytometry purity assay was performed for RPE-specific markers (FIG. 7G) as described in Example 6.

Assay [4] has as its system iPSC-derived RPE cultures. As to the kind of experiment: Flow cytometry purity assay for RPE-specific markers. The procedure: The flow cytometry purity assay was performed to determine the percentage of RPE cells obtained by a sorting method of the present disclosure. An aliquot of the cell suspension collected from the MACS assay (2×10^6 cells in a 5 mL FACS tube per sample) was centrifuged at 400×g for 3 min. The cell pellet was resuspended in 1 mL of a stain (e.g., Live-Dead Red stain) and incubated in the dark at room temperature for 15 min. After incubation, 2 mL of wash buffer was added and the cells were centrifuged at 400×g for 3 min to remove any unbound stain. The cell pellet was resuspended in fixation buffer and incubated in the dark at room temperature for 15 min. After incubation, 2 mL of wash buffer were added and the cells were centrifuged at 400×g for 3 min and the supernatant was decanted. The cell pellet was resuspended in 2 mL of wash buffer to make a 1×10^6 cells/mL suspension and 200 μL of the cell suspension was transferred to a FACS tube. To each tube, 2 mL of perm buffer was added and cells were centrifuged at 400×g for 3 min. Primary antibodies for the RPE-specific markers were diluted in perm buffer and 100 μL diluted antibody solution was added to each tube. After incubation overnight at 4° C. in the dark, the cells were washed in 2 mL Penn Buffer two times. Secondary antibody solution was added to each of the tubes and cells were incubated at room temperature in the dark for 1-2 hours. […]
Next, it was tested whether an increase in the concentration of PGE2 from 50 μM to 100 μM in the RPE-MM+PGE2 medium would improve both purity of the RPE population (i.e., a decrease in contaminating cells) as well as maturity of the resulting RPE population. To determine the maturity and functionality of the 50 μM versus 100 μM PGE2 treated cultures, the barrier function in terms of transepithelial electrical resistance (TER) was measured (FIG. 7F) to compare the resistance of substances through the paracellular space as explained in Example 9. […]
Background: A flow cytometer gives signals particle by particle.

Assay [5] concerns iPSC-derived RPE population. Nature of the assay: Inclusion of MEK inhibitor in RDM and RPE-MM during RPE differentiation. Particulars: 1 μM in RDM and in RPE-MM (approximately Days 42 through 50). The procedure: With regard to the methods described in Examples 2 and 3, the inclusion of PD0325901 at a concentration of 1 μM in media for certain windows of time beginning on Day 2 post iPSC plating through the end of the differentiation process, including post-MACS culture, may improve both purity of the RPE population (meaning a decrease in contaminating cells) as well as maturity of the resulting RPE population.

Setting [6] is: treated iPSC-RPE cells vs untreated (untreated: low in cytoplasm).
[7] abbreviates: day 75, 100 μM vs 50 μM PGE2 from day 54 to day 75.

`Cc1ccc2nc(NC(=O)CSc3nc4c(c(=O)n3-c3ccccc3)SCC4)sc2c1` [IWP2, N-(6-Methyl-2-benzothiazolyl)-2-[(3,4,6,7-tetrahydro-4-oxo-3-phenylthieno[3,2-d]pyrimidin-2-yl)thio]-acetamide]: in assay [1], the “Production of mature RPE cells” value is recorded as “produces mature RPE cells”, the p27 staining entry is “higher p27 expression in the nucleus” and the Beta catenin staining entry was “decreased beta catenin; also recorded: beta catenin on cell membrane”. Besides, in assay [1] (setting [6]), the RPE65 staining entry was “increased RPE65; also recorded: high in the cytoplasm”.

On to `CCCCC[C@H](O)/C=C/[C@H]1[C@H](O)CC(=O)[C@@H]1C/C=C\CCCC(=O)O` [PGE2, prostaglandin E2], for which, in assay [1], the “Production of mature RPE cells” value is given as “produces mature RPE cells” and the Beta catenin staining entry was “decreased beta catenin; also recorded: at the membrane”. Also, the ZO1 staining result in assay [1] (treated and untreated iPSC-RPE cells) was “at the tight junctions in the plasma membrane”. Besides, in assay [1] (setting [6]), the RPE65 staining result is “increased RPE65; also recorded: high in the cytoplasm of the treated cells” and the “pERM (Ezrin) staining” value is on record as “high in the cytoplasm of the treated cells”. Besides, the “Apical processes in transmission electron micrographs” value in assay [2] is on record as “more extensive apical processes”. Also, in assay [3] (100 μM vs 50 μM PGE2 in RPE-MM+PGE2 medium, Day 54 to Day 75), the “Functional response (TER)” value is on record as “progressive increase”. The “TEP and TER measurements (functionality)” value in assay [3] (treated RPE cells versus untreated RPE cells) is “increased functionality”. In assay [4] (PGE2 raised from 50 μM to 100 μM in RPE-MM+PGE2, judged by TER and flow cytometry), the “Purity and maturity of the RPE population” value is “promotes both the purity and maturity”. In addition, in assay [4] (setting [7]), the “Expression of Best 1 marker (late maturity RPE marker)” value is given as “much higher”; the “Percent expression of Pmel17, Tryp1 and Cralbp (RPE-specific markers)” value is “comparable expression”.

`O=C(NOC[C@H](O)CO)c1ccc(F)c(F)c1Nc1ccc(I)cc1F` [PD0325901, N-[(2R)-2,3-Dihydroxypropoxy]-3,4-difluoro-2-[(2-fluoro-4-iodophenyl)amino]-benzamide]: the “Purity and maturity of the RPE population” value in assay [5] was “improve both purity and maturity”.

Turning to `[Cl-].[Li+]` [LiCl], in assay [1], the p27 staining result is given as “weak p27 expression in the nucleus” and the Beta catenin staining result is on record as “beta catenin in the nucleus”. Moreover, in assay [1] (setting [6]), the RPE65 staining entry was “no staining is seen”.
